Experimental findings from paper PMC9618959, “Cisapride induced hypoglycemia via the KCNH6 potassium channel” (Frontiers in Endocrinology, 2022) are described below.

Assay [1] deals with T1, KCNH6 (Homo sapiens, UniProt Q9H252).
T1 construct: human KCNH6 gene in pcDNA3.1, transiently expressed in HEK293 cells
T1 sequence (Q9H252 1-958): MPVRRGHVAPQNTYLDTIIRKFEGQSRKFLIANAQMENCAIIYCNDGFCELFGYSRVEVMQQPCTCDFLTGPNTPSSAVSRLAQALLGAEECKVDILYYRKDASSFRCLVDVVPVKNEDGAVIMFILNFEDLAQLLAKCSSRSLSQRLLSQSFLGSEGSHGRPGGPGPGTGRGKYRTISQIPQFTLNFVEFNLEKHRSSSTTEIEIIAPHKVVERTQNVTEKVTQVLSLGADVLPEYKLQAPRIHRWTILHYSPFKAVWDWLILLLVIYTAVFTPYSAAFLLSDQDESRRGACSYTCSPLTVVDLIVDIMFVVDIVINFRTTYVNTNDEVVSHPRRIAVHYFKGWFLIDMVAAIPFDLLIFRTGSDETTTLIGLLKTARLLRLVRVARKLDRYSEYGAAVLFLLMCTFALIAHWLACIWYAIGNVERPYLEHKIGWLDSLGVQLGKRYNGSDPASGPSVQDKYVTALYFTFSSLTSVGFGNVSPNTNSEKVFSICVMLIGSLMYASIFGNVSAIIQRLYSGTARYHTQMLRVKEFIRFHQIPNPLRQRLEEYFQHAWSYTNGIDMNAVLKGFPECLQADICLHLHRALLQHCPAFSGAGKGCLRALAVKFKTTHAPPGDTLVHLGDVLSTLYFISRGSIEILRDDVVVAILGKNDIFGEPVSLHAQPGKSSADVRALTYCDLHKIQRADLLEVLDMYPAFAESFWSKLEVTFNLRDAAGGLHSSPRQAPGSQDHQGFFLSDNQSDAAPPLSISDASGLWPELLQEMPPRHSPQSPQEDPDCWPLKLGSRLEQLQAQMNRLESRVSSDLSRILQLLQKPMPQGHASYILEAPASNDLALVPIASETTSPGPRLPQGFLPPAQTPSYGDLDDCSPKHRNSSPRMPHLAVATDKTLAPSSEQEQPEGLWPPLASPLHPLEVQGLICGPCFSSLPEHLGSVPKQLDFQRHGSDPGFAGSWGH
As to the kind of experiment: whole-cell patch-clamp, peak tail current in transfected HEK293 cells. The class given is cell-based.

Assay [2] deals with T1, KCNH6. As to the kind of experiment: whole-cell patch-clamp in transfected HEK293 cells (inhibitor control). The class given is cell-based.

By IC50 is commonly meant the concentration that gives 50% inhibition. Take `COc1cc(N)c(Cl)cc1C(=O)NC1CCN(CCCOc2ccc(F)cc2)CC1OC` (centres unmarked) [cisapride]: the IC50 at KCNH6 [1] came to 6.04 nM. In other words, the single-digit nanomolar range.
`CN(CCOc1ccc(NS(C)(=O)=O)cc1)CCc1ccc(NS(C)(=O)=O)cc1` [dofetilide]: the “whole-cell patch-clamp in transfected HEK293 cells (inhibitor control)” value on KCNH6 [2] is “E4031 and dofetilide were used as inhibitor controls”.
